# Data published in the C3SDB collision cross section collection.
# Structures can show the parent of a compound that is named as a salt.
# Details: instrument: DT, single field, calibrated with Agilent tune mix (Agilent)
smiles,measurement,setting,value
NC(CCCC(=O)O)C(=O)O (racemic) [DL-2-Aminoadipic acid],collision cross section (N2),[M+H]+,134.4 Å²
same,collision cross section (N2),[M-H]-,127.69 Å²
O=C(O)C(CO)OP(=O)(O)O (racemic) [DL-2-Phosphoglycerate],collision cross section (N2),[M+Na]+,141.8 Å²
CS(=O)CCC(N)C(=O)O (racemic) [DL-Methionine sulfoxide],collision cross section (N2),[M+H]+,133.1 Å²
"Cn1c(=O)[nH]c2ncn(C)c2c1=O [1,7-Dimethylxanthine]",collision cross section (N2),[M-H]-,133.24 Å²
Cn1cc(CCN)c2ccccc21 [1-Methyltryptamine],collision cross section (N2),[M+Na]+,139 Å²
Cn1c(=O)[nH]c2[nH]c(=O)[nH]c2c1=O [1-Methyluric acid],collision cross section (N2),[M-H]-,129.18 Å²
O=C(O)c1ccccc1O[C@@H]1O[C@H](C(=O)O)[C@@H](O)[C@H](O)[C@H]1O [1-Salicylate glucuronide],collision cross section (N2),[M+Na]+,170.1 Å²
same,collision cross section (N2),[M-H]-,157.84 Å²
Nc1ncnc2c1ncn2[C@H]1C[C@H](O)[C@@H](COP(=O)(O)O)O1 [2'-Deoxyadenosine 5'-monophosphate],collision cross section (N2),[M+H]+,168.1 Å²
Nc1ccn([C@H]2C[C@H](O)[C@@H](COP(=O)(O)O)O2)c(=O)n1 [2'-Deoxycytidine 5'-monophosphate],collision cross section (N2),[M+Na]+,164 Å²
"O=C(O)C(COP(=O)(O)O)OP(=O)(O)O [2,3-Diphospho-D-glyceric acid]",collision cross section (N2),[M+Na]+,152.3 Å²
O=P(O)(O)OC[C@H]1O[C@@H](O)C[C@@H]1O [2-Deoxyribose 5-phosphate],collision cross section (N2),[M-H]-,132.47 Å²
CNc1nc(=O)c2ncn([C@@H]3O[C@H](CO)[C@@H](O)[C@H]3O)c2[nH]1 [2-Methylguanosine],collision cross section (N2),[M+Na-2H]-,166.02 Å²
same,collision cross section (N2),[M+Na]+,178.4 Å²
O=C(O)CCCC(=O)C(=O)O [2-Oxoadipic acid],collision cross section (N2),[M+Na-2H]-,129.65 Å²
"N[C@@H](Cc1ccc(O)c(O)c1)C(=O)O [3,4-Dihydroxy-L-phenylalanine]",collision cross section (N2),[M+H]+,148.7 Å²
same,collision cross section (N2),[M-H]-,138.21 Å²
"O=C(O)Cc1ccc(O)c(O)c1 [3,4-Dihydroxyphenylacetic acid]",collision cross section (N2),[M-H2O-H]-,125.7 Å²
"NC(Cc1cc(I)c(Oc2ccc(O)cc2)c(I)c1)C(=O)O (configuration not stated) [3,5-Diiodothyronine]",collision cross section (N2),[M+H]+,198.2 Å²
same,collision cross section (N2),[M-H]-,186.44 Å²
CC(CC(=O)O)CC(=O)O [3-Methylglutaric acid],collision cross section (N2),[M-H]-,122.88 Å²
Cn1c(=O)[nH]c(=O)c2[nH]c(=O)[nH]c21 [3-Methyluric acid],collision cross section (N2),[M-H]-,128.86 Å²
O=C(O)[C@H](O)COP(=O)(O)O [3-Phospho-D-glycerate],collision cross section (N2),[M+Na]+,139.4 Å²
"C[C@]12CC[C@@H](O)C[C@H]1CC[C@@H]1[C@@H]2[C@@H](O)C[C@]2(C)[C@@H](C(=O)CO)CC[C@@H]12 [3alpha,11beta,21-Trihydroxy-5beta-pregnan-20-one]",collision cross section (N2),[M+H-H2O]+,179.6 Å²
same,collision cross section (N2),[M-H]-,187.18 Å²
NC(N)=NCCCC(=O)O [4-Guanidinobutyric acid],collision cross section (N2),[M+H]+,129.7 Å²
O=C(O)c1ccc([O-])cc1 [4-Hydroxybenzoate],collision cross section (N2),[M+H-H2O]+,119 Å²
same,collision cross section (N2),[M-H]-,119.33 Å²
COc1ccc(CC(=O)O)cc1 [4-Methoxyphenylacetic acid],collision cross section (N2),[M+H]+,137.4 Å²
"Nc1nc(=O)c2c([nH]1)NCC1CN(c3ccc(C(=O)NC(CCC(=O)O)C(=O)O)cc3)CN21 (configuration not stated) [5,10-methylene-THF]",collision cross section (N2),[M-H]-,192.06 Å²
N[C@@H](Cc1c[nH]c2ccc(O)cc12)C(=O)O [5-Hydroxy-L-tryptophan],collision cross section (N2),[M+Na]+,152.2 Å²
same,collision cross section (N2),[M-H]-,148.86 Å²
O=C(O)c1ccc(=O)[nH]c1 [6-Hydroxynicotinic acid],collision cross section (N2),[M+H]+,129.5 Å²
same,collision cross section (N2),[M-H]-,118.52 Å²
O=C(O)[C@H](O)[C@@H](O)[C@H](O)[C@H](O)COP(=O)(O)O [6-Phospho-D-gluconate],collision cross section (N2),[M+Na]+,157.3 Å²
"C[C@H](O)[C@H](O)C1=Nc2c([nH]c(N)nc2=O)NC1 [7,8-Dihydrobiopterin]",collision cross section (N2),[M+H]+,154.1 Å²
Cn1c(=O)[nH]c2[nH]c(=O)[nH]c(=O)c21 [7-Methyluric acid],collision cross section (N2),[M-H]-,129.35 Å²
CC1=C(/C=C/C(C)=C\C=C\C(C)=C\C=O)C(C)(C)CCC1 [9-cis-Retinal],collision cross section (N2),[M+H]+,170.1 Å²
CC1=C(/C=C/C(C)=C\C=C\C(C)=C\C(=O)O)C(C)(C)CCC1 [9-cis-Retinoic acid],collision cross section (N2),[M+H-H2O]+,169.6 Å²
same,collision cross section (N2),[M-H]-,200.01 Å²
CC12CCC(=O)C=C1CCC1C2CCC2(C)C(C(=O)CO)CCC12 (configuration not stated) [11-Deoxycorticosterone],collision cross section (N2),[M+H]+,186.5 Å²
same,collision cross section (N2),[M-H]-,184.42 Å²
C[C@]12CC[C@H]3[C@@H](CC=C4C[C@@H](O)CC[C@@]43C)[C@@H]1CC[C@@H]2C(=O)CO [21-Hydroxypregnenolone],collision cross section (N2),[M+H-H2O]+,178.4 Å²
same,collision cross section (N2),[M-H]-,185.89 Å²
CC(C)CC[C@@H](O)[C@@H](C)[C@H]1CC[C@H]2[C@@H]3CC=C4C[C@@H](O)CC[C@]4(C)[C@H]3CC[C@]12C [22beta-Hydroxycholesterol],collision cross section (N2),[M+H-H2O]+,205.2 Å²
same,collision cross section (N2),[M-H]-,217.74 Å²
C=C1CC[C@H](O)C/C1=C/C=C1\CCC[C@]2(C)[C@@H]([C@H](C)CCCC(C)(C)O)CC[C@@H]12 [25-hydroxyvitamin D3],collision cross section (N2),[M-H]-,200.06 Å²
Nc1ncnc2c1ncn2[C@@H]1O[C@H](COP(=O)(O)OP(=O)(O)OC[C@@H](O)[C@@H](O)[C@@H](O)C=O)[C@@H](O)[C@H]1O [ADP Ribose],collision cross section (N2),[M+H]+,211.4 Å²
CC(=O)CC(=O)SCCNC(=O)CCNC(=O)[C@H](O)C(C)(C)COP(=O)(O)OP(=O)(O)OC[C@H]1O[C@@H](n2cnc3c(N)ncnc32)[C@H](O)[C@@H]1OP(=O)(O)O [Acetoacetyl coenzyme A],collision cross section (N2),[M+H]+,247.8 Å²
same,collision cross section (N2),[M-H]-,252.94 Å²
CC(=O)Oc1cc(C)c(OC(C)=O)c2ccccc12 [Acetomenaphthone],collision cross section (N2),[M+Na]+,157.2 Å²
CC(=O)OCC[N+](C)(C)C [Acetylcholine],collision cross section (N2),[M+H]+,129.7 Å²
Nc1ncnc2c1ncn2[C@@H]1O[C@H](COP(=O)(O)OP(=O)(O)O)[C@@H](O)[C@H]1O [Adenosine 5'-diphosphate],collision cross section (N2),[M+H]+,186.1 Å²
Nc1ncnc2c1ncn2[C@@H]1O[C@H](COP(=O)(O)OS(=O)(=O)O)[C@@H](O)[C@H]1O [Adenosine 5'-phosphosulfate],collision cross section (N2),[M+Na]+,190.4 Å²
same,collision cross section (N2),[M-H]-,180.48 Å²
Nc1ccccc1C(=O)O [Anthranilic acid],collision cross section (N2),[M+H-H2O]+,118.8 Å²
same,collision cross section (N2),[M-H]-,123.99 Å²
CCCCCCCCCCCCCCCCCCCC(=O)O [Arachidic acid],collision cross section (N2),[M-H]-,183.41 Å²
CCCCC/C=C\C/C=C\C/C=C\C/C=C\CCCC(=O)O [Arachidonic Acid],collision cross section (N2),[M-H]-,178.94 Å²
CCCCCCCCCCCCCCCCCCCCCC(=O)O [Behenic acid],collision cross section (N2),[M-H]-,191.18 Å²
O=C(O)c1ccccc1 [Benzoic acid],collision cross section (N2),[M-H]-,121.84 Å²
O=P(O)(O)O[C@]1(CO)O[C@H](CO)[C@@H](O)[C@@H]1O [Beta-D-Fructose 2-phosphate],collision cross section (N2),[M+Na]+,154 Å²
same,collision cross section (N2),[M-H]-,141.51 Å²
O=P(O)(O)OC[C@H]1O[C@](O)(CO)[C@@H](O)[C@@H]1O [Beta-D-Fructose 6-phosphate],collision cross section (N2),[M+H]+,149.3 Å²
same,collision cross section (N2),[M-H]-,141.02 Å²
C[N+](C)(C)CC=O [Betaine aldehyde],collision cross section (N2),[M+H]+,117.2 Å²
CCCC(=O)SCCNC(=O)CCNC(=O)[C@H](O)C(C)(C)COP(=O)(O)OP(=O)(O)OC[C@H]1O[C@@H](n2cnc3c(N)ncnc32)[C@H](O)[C@@H]1OP(=O)(O)O [Butyryl-CoA],collision cross section (N2),[M+H]+,252.9 Å²
CCCC(=O)SCCNC(=O)CCNC(=O)[C@H](O)C(C)(C)COP(=O)(O)OP(=O)(O)OC[C@H]1O[C@@H](n2cnc3c(N)ncnc32)[C@H](O)[C@@H]1OP(=O)(O)O [Butyryl-coenzyme A],collision cross section (N2),[M-H]-,253.26 Å²
CC(C)CCC[C@@H](C)[C@H]1CC[C@H]2[C@@H]3CC=C4C[C@@H](OS(=O)(=O)O)CC[C@]4(C)[C@H]3CC[C@]12C [Cholesteryl sulfate],collision cross section (N2),[M-H]-,237.01 Å²
CC1=C(CCC(=O)O)c2cc3nc(cc4[nH]c(cc5[nH]c(cc1n2)c(C)c5CCC(=O)O)c(CCC(=O)O)c4C)C(CCC(=O)O)=C3C [Coproporphyrin III],collision cross section (N2),[M+H]+,257.2 Å²
same,collision cross section (N2),[M-H]-,271.13 Å²
N[C@@H](CS)C(=O)NCC(=O)O [Cysteinylglycine],collision cross section (N2),[M-H]-,131.77 Å²
Nc1ccn([C@@H]2O[C@H](COP(=O)(O)O)[C@@H](O)[C@H]2O)c(=O)n1 [Cytidine 5'-monophosphate],collision cross section (N2),[M+H]+,166.3 Å²
Nc1ccn([C@@H]2O[C@H](COP(=O)(O)OP(=O)(O)OP(=O)(O)O)[C@@H](O)[C@H]2O)c(=O)n1 [Cytidine triphosphate],collision cross section (N2),[M-H]-,179.08 Å²
C[C@@H](N)C(=O)N[C@H](C)C(=O)O [D-Ala-D-Ala],collision cross section (N2),[M+Na]+,142.8 Å²
C[C@@H](N)C(=O)N[C@H](C)C(=O)O [D-Alanyl-D-alanine],collision cross section (N2),[M-H]-,134.05 Å²
OC[C@H]1OC(O)[C@H](O)[C@H](O)[C@@H]1O (stereo partly drawn) [D-Allose],collision cross section (N2),[M+Na]+,143.1 Å²
O=C(O)[C@@H](O)[C@H](O)[C@H](O)[C@@H](O)C(=O)O [D-Galactarate],collision cross section (N2),[M+Na]+,147.3 Å²
same,collision cross section (N2),[M-H]-,130.24 Å²
"O=C1O[C@H](CO)[C@@H](O)[C@H](O)[C@H]1O [D-Glucono-1,5-lactone]",collision cross section (N2),[M-H]-,130.59 Å²
OC[C@@H](O)[C@@H](O)[C@H](O)[C@H](O)CO [D-Mannitol],collision cross section (N2),[M+Na]+,141 Å²
